Data published in patent publication US8399465B2, “Compounds with two fused bicyclic heteroaryl moieties as modulators of leukotriene A4 hydrolase” (Janssen Pharmaceutica NV, priority 2009, dated 2013).
pIC50: −log10 of the molar value. Structures can show the parent of a compound that is named as a salt. Where two headings read alike, the source gives them in different places.

Key:
[1] = system: ionophore-induced LTB4 production; conditions: oral administration; cited from earlier work
[2] = system: colitis symptoms; conditions: eight weeks of treatment; cited from earlier work
[3] = system: ionophore-induced LTB4 production; conditions: oral administration; cited from earlier work; remark: listed apart in the source
[4] = system: arachidonic acid-induced neutrophil influx in murine ear tissue; assay: Murine arachidonic acid-induced inflammation model: neutrophil influx (myeloperoxidase) in ear; format: in vivo, Balb/c mice; conditions: Mus musculus, read-out: % Inh. MPO
[5] = system: LTB4 production in murine blood (LTA4H); assay: LTB4 production by calcium ionophore-stimulated murine blood for LTA4H inhibitor activity; format: cell-based, CD-1 mice; conditions: Mus musculus; murine blood diluted 1 in 15, A23187 stimulated; single determination or average; mark after value = form tested: ′ free base, ″ hydrochloride, ^ formate; read-out: IC50
In short: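 LTB4 was measured by ELISA in supernatants after calcium ionophore A23187 stimulation (final 7 μg/mL, 30 min, 37° C) of CD-1 mouse blood collected on heparin. Compound was preincubated with the blood for 15 min beforehand. Values come from one determination or average several.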

[6] = target: T1, recombinant human LTA4 hydrolase (rhLTA4H) (Homo sapiens, UniProt P09960); assay: Recombinant human LTA4 hydrolase assay for LTA4 hydrolase inhibitor activity; format: biochemical
T1 construct: made in house; host or cells: Spodoptera frugiperda (Sf-9) cells, baculovirus (pFastBac1)
T1 sequence (P09960 1-611): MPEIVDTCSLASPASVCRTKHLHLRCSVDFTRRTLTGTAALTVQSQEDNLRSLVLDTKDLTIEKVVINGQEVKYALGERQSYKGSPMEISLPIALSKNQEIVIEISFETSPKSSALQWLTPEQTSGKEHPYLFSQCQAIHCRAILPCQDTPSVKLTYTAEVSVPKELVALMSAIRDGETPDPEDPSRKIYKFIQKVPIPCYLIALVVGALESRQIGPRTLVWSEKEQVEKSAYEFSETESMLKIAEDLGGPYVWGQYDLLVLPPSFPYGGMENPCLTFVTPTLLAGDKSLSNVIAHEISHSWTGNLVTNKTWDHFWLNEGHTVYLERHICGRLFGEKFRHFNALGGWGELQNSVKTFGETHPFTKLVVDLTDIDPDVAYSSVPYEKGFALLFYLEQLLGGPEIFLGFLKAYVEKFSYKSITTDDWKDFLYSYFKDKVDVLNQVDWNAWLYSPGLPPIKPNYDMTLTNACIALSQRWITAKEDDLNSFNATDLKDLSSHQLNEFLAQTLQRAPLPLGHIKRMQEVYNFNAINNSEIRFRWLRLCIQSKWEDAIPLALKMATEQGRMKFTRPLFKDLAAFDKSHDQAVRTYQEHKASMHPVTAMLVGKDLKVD
In short: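 LTB4 formation, measured by enzyme immunoassay, was the read-out. The enzyme, recombinant human LTA4H expressed in Sf-9 insect cells (10 ng per reaction), was exposed to compound for 10 min at room temperature before hydrolysed-ester LTA4 substrate was added for 30 min. Enzyme-free negatives were included.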

[7] = system: ex vivo calcium ionophore-stimulated LTB4 production in whole blood; assay: Murine arachidonic acid-induced inflammation model: ex vivo stimulated LTB4 production in blood; set-up: species or system Balb/c mice; conditions: Mus musculus; 30 mg/kg oral gavage; blood diluted 1:1, A23187 stimulated ex vivo; percent inhibition of LTB4 production; read-out: % Inh. LTB4
[8] = system: airway hyperresponsiveness; conditions: multiple antigen challenges, primate model; cited from earlier work
[9] = 30 mg/kg oral gavage, 60 min before topical arachidonic acid, ear biopsy after 3 h, percent inhibition of neutrophil influx
[10] = rhLTA4H, LTB4 by immunoassay, single determination or average of two or more, mark after value = form tested: ′ free base, ″ hydrochloride, ^ formate, read-out: IC50

Structure (SMILES)	pIC50 [5]	pIC50 [6, 10]	ionophore-induced LTB4 production in rat peritoneum in vivo [1]	colitis symptoms [2]	ionophore-induced LTB4 production in mouse blood ex vivo [3]	inhibition at 30 mg/kg [4, 9] [%]	inhibition at 30 mg/kg [7] [%]	inhibition at 30 mg/kg ([4]; Neutrophil) [%]	airway hyperresponsiveness [8]	pIC50 [6]
CN(CCCOc1ccc(Cc2ccccc2)cc1)CCC(=O)O.Cl [SC57461]			caused inhibition	significantly improved	caused inhibition					
NC(=O)N1CC2CCC(C1)N2C(=O)c1coc2cc(Oc3nc4ncccc4s3)ccc12 [Example 374, meso-8-[6-(Thiazolo[4,5-b]pyridin-2-yloxy)-benzofuran-3-carbonyl]-3,8-diaza-bicyclo[3.2.1]octane-3-carboxylic acid amide]	7.30	7.96				37	7			
CC(=O)N1C[C@H]2CC[C@@H](C1)N2Cc1cc2ccc(Oc3nc4ncccc4s3)cc2o1 [Example 119, meso-1-{8-[6-(Thiazolo[4,5-b]pyridin-2-yloxy)-benzofuran-2-ylmethyl]-3,8-diaza-bicyclo[3.2.1]oct-3-yl}-ethanone]	6.66	7.44				83	78			
CCN(CC)Cc1cc2ccc(Oc3nc4ncccc4s3)cc2o1 [Example 198, Diethyl-[6-(thiazolo[4,5-b]pyridin-2-yloxy)-benzofuran-2-ylmethyl]-amine formate]	6.96	7.96					80	74		
O=C(O)C1(c2ccc3c(c2)OC[C@H](Cc2ccc(-c4ccccc4)cc2)[C@H]3O)CCCC1 [CP-105,696]									reduced	
CN(C)Cc1cc2cc(Oc3nc4ncccc4s3)ccc2o1 [Example 112, Dimethyl-[5-(thiazolo[4,5-b]pyridin-2-yloxy)-benzofuran-2-ylmethyl]-amine]	7.15	7.38				17	56			
NC(=O)N1C[C@@H]2C[C@H]1CN2Cc1coc2cc(Oc3nc4ncccc4s3)ccc12 [Example 209, (1S,4S)-5-[6-(Thiazolo[4,5-b]pyridin-2-yloxy)-benzofuran-3-ylmethyl]-2,5-diaza-bicyclo[2.2.1]heptane-2-carboxylic acid amide formate]	7.27	7.28					68	82		
CC(=O)N[C@H]1C[C@@H]2C[C@H]1CN2Cc1cc2ccc(Oc3nc4ncccc4s3)cc2o1 [Example 189, (1S,4S,5S)—N-{2-[6-(Thiazolo[4,5-b]pyridin-2-yloxy)-benzofuran-2-ylmethyl]-2-aza-bicyclo[2.2.1]hept-5-yl}-acetamide]	7.15	8.52				84	76			
CC(=O)N[C@H]1C[C@H]2CC[C@@H](C1)N2Cc1coc2cc(Oc3nc4ncccc4s3)ccc12 [Example 155, meso-endo-N-{8-[6-(Thiazolo[4,5-b]pyridin-2-yloxy)-benzofuran-3-ylmethyl]-8-aza-bicyclo[3.2.1]oct-3-yl}-acetamide]	8.05					88	85			8.70
CC(=O)N1C[C@H]2C[C@@H]1CN2Cc1cc2ccc(Oc3nc4ncccc4s3)cc2o1 [Example 107, (1R,4R)-1-{5-[6-(Thiazolo[4,5-b]pyridin-2-yloxy)-benzofuran-2-ylmethyl]-2,5-diaza-bicyclo[2.2.1]hept-2-yl}-ethanone]	6.56	7.19				82	75			

More lines, main results first:

pIC50 [5]	pIC50 [6, 10]	Structure (SMILES)	ionophore-induced LTB4 production in rat peritoneum in vivo [1]	colitis symptoms [2]	ionophore-induced LTB4 production in mouse blood ex vivo [3]	inhibition at 30 mg/kg [4, 9] [%]	inhibition at 30 mg/kg [7] [%]	inhibition at 30 mg/kg ([4]; Neutrophil) [%]	airway hyperresponsiveness [8]	pIC50 [6]
7.72	8.70	CNC(=O)C1CCN(Cc2coc3cc(Oc4nc5ncccc5s4)ccc23)CC1 [Example 214, 1-[6-(Thiazolo[4,5-b]pyridin-2-yloxy)-benzofuran-3-ylmethyl]-piperidine-4-carboxylic acid methylamide]				88	90			
7.08	7.60	CC(=O)N1C[C@@H]2C[C@H]1CN2C(=O)c1coc2cc(Oc3nc4ncccc4s3)ccc12 [Example 371, (1S,4S)-1-{5-[6-(Thiazolo[4,5-b]pyridin-2-yloxy)-benzofuran-3-carbonyl]-2,5-diaza-bicyclo[2.2.1]hept-2-yl}-ethanone]				82	54			
7.66	8.70	CC(=O)N1C[C@@H]2CC[C@H]1CN2Cc1coc2cc(Oc3nc4ncccc4s3)ccc12 [Example 237, (1S,4S)1-{5-[6-(Thiazolo[4,5-b]pyridin-2-yloxy)-benzofuran-3-ylmethyl]-2,5-diaza-bicyclo[2.2.2]oct-2-yl}-ethanone]				81	90			
7.28	8.30	CC(C)(O)C1CCN(Cc2coc3cc(Oc4nc5ncccc5s4)ccc23)CC1 [Example 218, 2-{1-[6-(Thiazolo[4,5-b]pyridin-2-yloxy)-benzofuran-3-ylmethyl]-piperidin-4-yl}-propan-2-ol]				98	83			
7.68	8.52	O=C1CCCN1C1CCN(Cc2coc3cc(Oc4nc5ncccc5s4)ccc23)CC1 [Example 215, 1-{1-[6-(Thiazolo[4,5-b]pyridin-2-yloxy)-benzofuran-3-ylmethyl]-piperidin-4-yl}-pyrrolidin-2-one]				78	88			
